Reference: patent US10232023B2, “Methods for treatment of and prophylaxis against inflammatory disorders” (THE UNIVERSITY OF UTAH RESEARCH FOUNDATION, priority 2013, dated 2019)

Assays:
[1] = tested on: outbred Swiss mice, murine CL/P model; experiment: Survival in cecal ligation and puncture (CL/P) model; assay type: in vivo, mouse; details: 10 mcg/kg IP, 1 hour prior and 6 hours after surgery, vs CL/P control, p=0.06
Method: FIG. 11 is a graph tracking survival of outbred Swiss mice in various treatment arms of a murine CL/P model. CRISPP treated mice (10 mcg/kg) received 2 doses intraperitoneally; one given 1 hour prior to surgery or sham surgery and one dose given 6 hours after surgery. The same dose, delivery route, and schedule were followed for the scrambled peptide control mice. Ten mice were assessed in each of the CL/P groups.
Survival of outbred Swiss mice was tracked in various treatment arms following intraperitoneal injection of either LPS (20 mg/kg) or E. coli (4×10^7 bacteria), as shown in FIGS. 10A and 10B. […] Six mice were assessed in both groups: LPS+CRISPP and LPS+scrambled control peptide. […] Ten mice were assessed in each group: no treatment, E. coli+CRISPP, and E. coli+scrambled control peptide. […] Referring to FIG. 11, CRISPP was also evaluated in a murine model of polymicrobial infection caused by cecal ligation and puncture (CL/P). […] Ten mice were assessed in each of the CL/P groups. […]
Animals were treated with CRISPP (10 mg/kg), nNIF (10 mg/kg), or SCR (10 mg/kg) by i.p. injection 1 hour prior to and 6 hours after infection (E. coli, 4.5×10^7 cfu/mouse, i.p. injection) or stimulation (LPS, 25 mg/kg, i.p. injection). […] Survival was assessed over 6 days at 6 hour to 12 hour intervals.

[2] = tested on: LPS-stimulated human PMNs; experiment: Reactive oxygen species generation, dihydrorhodamine assay; assay type: cell-based; details: 1 nM, 1 hour pre-incubation; LPS 100 ng/mL
Method: Human PMNs isolated from healthy adult whole blood were resuspended to a concentration of 2×10^6 cells/mL in M-199 media and pre-incubated±[…] (1 nM) or SCR (1 nM) peptide for 1 hour under standard conditions. The PMNs were then stimulated with LPS (100 ng/mL) for 1 hour, washed, and resuspended with a dihydrorhodamine (7.25 mM; D-632, MOLECULAR PROBES) and catalase (1000 Units/mL; C-40, SIGMA) mixture and incubated at 37° C. for 10 minutes. After incubation, samples were placed at 4° C. and analyzed for ROS-dependent fluorescence using a BECTON-DICKINSON FACSCAN device equipped with CELLQUEST software.

[3] = tested on: PMNs isolated from healthy adult donors; experiment: PMN chemotaxis, modified Boyden Chamber assay; assay type: cell-based, human; details: 1 nM, one hour pre-incubation; IL-8 2 ng/mL
Method: Chemotaxis by PMNs isolated from healthy adult donors was assessed using a modified Boyden Chamber assay±a one hour pre-incubation […] (1 nM), or SCR (1 nM). Recombinant human IL-8 (2 ng/mL) was used as the chemoattractant. Chemotaxis through a 5 micron filter was determined by counting PMNs in 10 randomly selected high-power fields as previously described in Hill et al., Lancet, 1974, 2: 617-619. In separate experiments, […], or SCR (all at 1 nM) were evaluated for chemoattractant activity using the same system.

[4] = tested on: Outbred Swiss-Webster mice, E. coli peritonitis; experiment: Murine E. coli peritonitis: peritoneal fluid and membrane analysis; assay type: in vivo, mouse
Method: Outbred Swiss-Webster mice were injected intraperitoneally with 4.5×10^7 colony-forming units (cfu) of E. coli±nNIF, CRISPP, or scrambled control peptide (SCR) (10 mg/kg, IP injection) one hour prior to E. coli infection. At the 3 hour time point after infection, 3 mice were sacrificed and the peritoneal fluid and peritoneal tissue were collected and analyzed for leukocyte accumulation, bacteriology, and in vivo NET formation. […] See Fuchs et al., J Cell Biol, 2007, 176: 231-241. The number of E. coli cfu/mL of peritoneal fluid in CRISPP pretreated mice was also determined compared to SCR mice (see FIG. 17C).
Animals were treated with CRISPP (10 mg/kg), nNIF (10 mg/kg), or SCR (10 mg/kg) by i.p. injection 1 hour prior to infection (E. coli, 4.5×10^7 cfu/mouse, i.p. injection) or stimulation (LPS, 25 mg/kg, i.p. injection (SIGMA)). Control mice were injected with saline alone. The mice were sacrificed in a CO2 chamber 3 hours post-infection/stimulation with the peritoneal contents harvested and analyzed. Briefly, the skin of the abdomen was cut open in the midline after thorough disinfection and without injuring the muscle. The peritoneal cavity was lavaged with sterile saline solution ([…]) and analyzed for in vivo NET formation, bacteriology, and leukocyte accumulation. NETs in the peritoneal fluid were qualitatively and quantitatively analyzed using live cell imaging with confocal microscopy and histone release assays. NETs on the inner surface of the peritoneal membrane were assessed quantitatively using live cell imaging followed by standardized grid analysis of 5 randomly selected high power visual fields per tissue sample (IMAGE-J software, NIH). Peritoneal bacterial colony forming units (cfu) counts were quantified by permeabilizing all recovered leukocytes with 0.1% Triton-X 100 for 10 minutes and performing serial dilutions and bacterial cultures on 5% sheep blood agar plates (HARDY DIAGNOSTICS). After a 24-hour incubation, bacterial counts were determined. Total leukocyte counts in the peritoneal lavage were determined in Neubauer chambers using an optical microscope after dilution in Turk's solution (2% acetic acid). Differential leukocyte analysis was performed using a 60× oil immersion objective to assess morphology of cyto-centrifuged cells stained with May-Grunwald-Giemsa dye.

[5] = 10 mg/kg IP pretreatment, vs SCR control

Substance: Cancer-Associated SCM-Recognition, Immune Defense Suppression, and Serine Protease Protection Peptide [CRISPP, nNIF-related peptide (nNRP)]
- Survival [1]: approached statistical significance
- Reactive oxygen species generation [2]: did not significantly inhibit
- PMN chemotaxis [3]: did not significantly inhibit
- Peritoneal PMN accumulation ([4]; 10 mg/kg IP one hour prior to E. coli, 3 hours after infection, vs E. coli alone or SCR): significant increase
- Peritoneal fluid bacterial concentration (E. coli cfu/mL) ([4]; 10 mg/kg IP one hour prior to E. coli, 3 hours after infection, vs SCR): significant increase
- NET formation by histone H3 release assay of the peritoneal fluid [4, 5]: significant quantitative decrease
- NET formation in the peritoneal fluid (live cell imaging) [4, 5]: qualitative decrease
- Peritoneal membrane-associated NET formation ([4]; freshly resected peritoneal membrane, live cell imaging, standardized grid): qualitative and quantitative decrease
